Test results from US12459891B2, “1-[1-(4-benzyloxy-3,5-difluoro-benzoyl)-4-fluoro-pyrrolidine-2-carbonyl]-pyrrolidine-2-carbonitrile” (ACCURE THERAPEUTICS, S.L., priority 2020, dated 2025).

Assay: Plasma levels after oral administration
Type: in vivo

Question: With `COc1cc(C(=O)N2CC(F)(F)C[C@H]2C(=O)N2CCC[C@H]2C#N)cc(OC)c1OCc1ccccc1` [Comp Ex. 3, (S)-1-((2S)-1-(4-(benzyloxy)-3,5-dimethoxybenzoyl)-4,4-difluoropyrrolidine-2-carbonyl)pyrrolidine-2-carbonitrile] as the compound, how does the “Detected plasma levels of the drug (in words)” value read?
Answer: very low
